Assay results as given in ChEMBL document CHEMBL5226297, “Small-Molecule Drug Discovery in Triple Negative Breast Cancer: Current Situation and Future Directions” (J Med Chem, 2021).
Values after ≈ are worked out from the molar mass of the structure shown.

What was measured:
HCC1806 [1] = experiment: Anticancer activity against human HCC1806 cells assessed as cell growth inhibition; format: functional
HCC70 = experiment: Anticancer activity against human HCC70 cells assessed as cell growth inhibition; format: functional, cell-based
MDA-MB-231 [2] = experiment: Anticancer activity against human MDA-MB-231 cells assessed as cell growth inhibition incubated for 72 hrs by CellTiter-Blue assay; format: functional, cell-based; conditions: MDA-MB-231, 72 h
HCC1806 [3] = experiment: Anticancer activity against human HCC1806 cells assessed as cell growth inhibition incubated for 72 hrs by CellTiter-Blue assay; format: functional, cell-based; conditions: HCC1806, 72 h
MDA-MB-231 [4] = experiment: Anticancer activity against human MDA-MB-231 cells assessed as cell growth inhibition; format: functional, cell-based
MDA-MB-468 = experiment: Anticancer activity against human MDA-MB-468 cells assessed as cell growth inhibition; format: functional, cell-based
HCC1187 = experiment: Anticancer activity against human HCC1187 cells assessed as cell growth inhibition; format: functional, cell-based
HCC1143 = experiment: Anticancer activity against human HCC1143 cells assessed as cell growth inhibition; format: functional, cell-based
MDA-MB-231 [5] = experiment: Anticancer activity against human MDA-MB-231 cells assessed as cell growth inhibition incubated for 3 to 5 days by MTT assay; format: functional, cell-based
MCF7 = experiment: Anticancer activity against human MCF7 cells assessed as cell growth inhibition; format: functional, cell-based
HCC1937 = experiment: Anticancer activity against human HCC1937 cells assessed as cell growth inhibition; format: functional, cell-based
HCC38 [6] = experiment: Anticancer activity against human HCC38 cells assessed as cell growth inhibition; format: functional, cell-based
MDA-MB-453 = experiment: Anticancer activity against human MDA-MB-453 cells assessed as cell growth inhibition; format: functional, cell-based
MDA-MB-231 [7] = experiment: Anticancer activity against human MDA-MB-231 cells assessed as cell growth inhibition incubated for 24 hrs by CCK8 assay; format: functional, cell-based; conditions: MDA-MB-231, 24 h
MDA-MB-436 = experiment: Anticancer activity against human MDA-MB-436 cells assessed as cell growth inhibition incubated for 24 hrs by CCK8 assay; format: functional, cell-based; conditions: MDA-MB-436, 24 h
BT-549 [8] = experiment: Anticancer activity against human BT-549 cells assessed as cell growth inhibition incubated for 24 hrs by CCK8 assay; format: functional, cell-based; conditions: BT-549, 24 h
Aurora kinase A = Aurora kinase A (Homo sapiens, UniProt O14965); experiment: Inhibition of human Aurora A kinase expressed in MDA-MB-468 cells; format: cell-based
Chain of Aurora kinase A (O14965 whole entry): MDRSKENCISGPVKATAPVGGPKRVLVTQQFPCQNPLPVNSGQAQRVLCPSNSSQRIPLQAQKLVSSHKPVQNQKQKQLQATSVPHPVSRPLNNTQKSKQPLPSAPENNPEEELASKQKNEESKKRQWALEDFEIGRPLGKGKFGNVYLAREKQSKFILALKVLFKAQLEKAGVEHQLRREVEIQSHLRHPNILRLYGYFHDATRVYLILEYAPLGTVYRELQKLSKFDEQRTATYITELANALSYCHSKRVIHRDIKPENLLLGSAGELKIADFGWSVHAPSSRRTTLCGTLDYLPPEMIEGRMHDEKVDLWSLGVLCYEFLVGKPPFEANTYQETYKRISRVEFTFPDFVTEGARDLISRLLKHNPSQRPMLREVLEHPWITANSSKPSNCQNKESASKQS

Aurora kinase B [9] = biological target: T1, Aurora kinase B (Homo sapiens, UniProt Q96GD4); experiment: Inhibition of human Aurora B kinase expressed in MDA-MB-468 cells; format: cell-based
T1 sequence (Q96GD4 whole entry): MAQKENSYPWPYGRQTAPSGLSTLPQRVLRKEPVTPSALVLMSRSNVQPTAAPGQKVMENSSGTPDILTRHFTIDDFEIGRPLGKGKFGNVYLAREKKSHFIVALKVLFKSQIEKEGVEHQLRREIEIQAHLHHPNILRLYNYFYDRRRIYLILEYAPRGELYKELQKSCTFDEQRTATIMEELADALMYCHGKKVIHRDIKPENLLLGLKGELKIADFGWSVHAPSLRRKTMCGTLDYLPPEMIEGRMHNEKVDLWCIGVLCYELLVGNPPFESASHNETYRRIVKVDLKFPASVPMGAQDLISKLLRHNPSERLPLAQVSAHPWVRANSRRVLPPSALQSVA

Aurora kinase B [10] = biological target: T1, Aurora kinase B; experiment: Inhibition of human Aurora B kinase expressed in SUM149 cells; format: cell-based, SUM149PT
Aurora kinase B [11] = biological target: T1, Aurora kinase B; experiment: Inhibition of human Aurora B kinase expressed in MDA-MB-231 cells; format: cell-based
[12] = biological target: T2, Insulin-like growth factor 1 receptor (Homo sapiens, UniProt P08069); experiment: Inhibition of human IGF1R expressed in MDA-MB-468 cells; format: cell-based
T2 sequence (P08069 31-736 limits assumed): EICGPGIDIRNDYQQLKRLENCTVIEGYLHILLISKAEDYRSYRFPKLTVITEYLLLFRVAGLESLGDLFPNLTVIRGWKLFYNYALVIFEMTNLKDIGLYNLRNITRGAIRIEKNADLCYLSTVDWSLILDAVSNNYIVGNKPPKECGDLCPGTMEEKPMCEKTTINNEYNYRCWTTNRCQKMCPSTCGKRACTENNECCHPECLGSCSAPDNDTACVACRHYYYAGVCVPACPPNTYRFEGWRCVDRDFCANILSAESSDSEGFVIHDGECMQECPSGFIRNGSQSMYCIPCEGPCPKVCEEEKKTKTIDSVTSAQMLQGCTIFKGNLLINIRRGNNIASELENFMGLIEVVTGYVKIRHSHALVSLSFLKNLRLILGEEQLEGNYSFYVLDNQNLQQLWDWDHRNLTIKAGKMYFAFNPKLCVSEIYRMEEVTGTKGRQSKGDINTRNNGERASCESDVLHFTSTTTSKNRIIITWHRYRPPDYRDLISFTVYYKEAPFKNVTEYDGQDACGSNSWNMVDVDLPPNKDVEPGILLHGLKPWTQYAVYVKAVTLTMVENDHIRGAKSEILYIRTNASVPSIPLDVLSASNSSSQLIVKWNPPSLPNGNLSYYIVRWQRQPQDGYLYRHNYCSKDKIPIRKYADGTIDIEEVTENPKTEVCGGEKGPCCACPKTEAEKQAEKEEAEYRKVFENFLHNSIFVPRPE
T2 sequence (P08069 741-1367 limits assumed): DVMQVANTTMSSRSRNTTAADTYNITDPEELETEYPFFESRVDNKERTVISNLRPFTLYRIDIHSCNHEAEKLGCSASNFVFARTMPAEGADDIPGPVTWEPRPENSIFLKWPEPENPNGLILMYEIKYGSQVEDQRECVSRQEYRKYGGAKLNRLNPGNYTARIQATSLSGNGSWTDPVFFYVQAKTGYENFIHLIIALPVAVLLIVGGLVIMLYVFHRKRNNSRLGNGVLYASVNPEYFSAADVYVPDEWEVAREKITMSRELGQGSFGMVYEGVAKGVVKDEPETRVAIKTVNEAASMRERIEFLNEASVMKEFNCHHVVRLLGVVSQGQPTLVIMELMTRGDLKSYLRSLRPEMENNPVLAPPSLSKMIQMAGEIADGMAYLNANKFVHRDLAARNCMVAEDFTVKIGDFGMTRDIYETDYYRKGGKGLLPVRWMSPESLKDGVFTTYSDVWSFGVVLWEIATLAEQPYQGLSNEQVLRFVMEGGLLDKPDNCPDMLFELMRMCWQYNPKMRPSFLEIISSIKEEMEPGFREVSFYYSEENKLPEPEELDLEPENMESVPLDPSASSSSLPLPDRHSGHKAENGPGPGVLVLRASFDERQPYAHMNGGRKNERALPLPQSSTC

[13] = biological target: T2, Insulin-like growth factor 1 receptor; experiment: Inhibition of human IGF1R expressed in SUM149 cells; format: cell-based, SUM149PT
SUM149PT = experiment: Anticancer activity against human SUM149 cells assessed as cell growth inhibition; format: functional, cell-based
Hs-578T [14] = experiment: Anticancer activity against human Hs-578T cells assessed as cell growth inhibition; format: functional, cell-based
Hs-578T [15] = experiment: Anticancer activity against human Hs-578T cells assessed as cell growth inhibition incubated for 24 hrs by ALDEFLUOR assay; format: functional, cell-based
MDA-MB-231 [16] = experiment: cells; conditions: Homo sapiens, MDA-MB-231, 24 h
MDA-MB-231 [17] = experiment: Anticancer activity against human MDA-MB-231 cells assessed as cell growth inhibition incubated for 4 to 10 days by MTT assay; format: functional, cell-based
Hs-578T [18] = experiment: Anticancer activity against human Hs-578T cells assessed as cell growth inhibition incubated for 4 to 10 days by MTT assay; format: functional, cell-based
BT-549 [19] = experiment: Anticancer activity against human BT-549 cells assessed as cell growth inhibition incubated for 4 to 10 days by MTT assay; format: functional, cell-based
HCC1806 [20] = experiment: Anticancer activity against human HCC1806 cells assessed as cell growth inhibition incubated for 4 to 10 days by MTT assay; format: functional, cell-based
HCC38 [21] = experiment: Anticancer activity against human HCC38 cells assessed as cell growth inhibition incubated for 4 to 10 days by MTT assay; format: functional, cell-based
BT-20 = experiment: Anticancer activity against human BT-20 cells assessed as cell growth inhibition by MTT assay; format: functional, cell-based
Thioredoxin = Thioredoxin (Homo sapiens, UniProt P10599); experiment: Inhibition of human TXN incubated for 30 mins by fluorescence based plate reader analysis
Chain of Thioredoxin (P10599 whole entry): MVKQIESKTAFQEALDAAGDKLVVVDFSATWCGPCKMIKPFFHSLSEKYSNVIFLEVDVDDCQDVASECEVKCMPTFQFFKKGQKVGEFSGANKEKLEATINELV

Q: For `Nc1ccc(-c2ccc3ncc4ccc(=O)n(-c5cccc(C(F)(F)F)c5)c4c3c2)cn1`, which GR50 (HCC1806 [1]) is on record?
A: Its GR50 is 0.01 µM.

Q: What about the GR50 (HCC70) of the same compound?
A: Its GR50 is 0.01 µM.

Q: `O=C(Cc1cccc(OC(F)(F)F)c1)Nc1ccc(CCCCc2nnc(NC(=O)Cc3ccccn3)s2)nn1` was tested. Which IC50 (MDA-MB-231 [2]) did it give?
A: The IC50 was 0.05 µM.

Q: What about the IC50 (HCC1806 [3]) of the same compound?
A: Its IC50 is 0.1 µM.

Q: With `N#CCNC(=O)c1ccc(-c2ccnc(Nc3ccc(N4CCOCC4)cc3)n2)cc1` [MOMELOTINIB] as the compound, how does the IC50 (MDA-MB-231 [4]) read?
A: Its IC50 is 1 µM.

Q: What about the IC50 (MDA-MB-468) of the same compound?
A: Its IC50 is 1 µM.

Q: What about the IC50 (HCC70; Homo sapiens, HCC70) of the same compound?
A: Its IC50 is 10 µM.

Q: And the IC50 (HCC1187)?
A: The IC50 was 1 µM.

Q: And the IC50 (HCC1143)?
A: Its IC50 is 5 µM.

Q: How did the IC50 (MDA-MB-231 [5]) turn out when `CCOC(=O)c1cnn(-c2ccc(NC(=O)C(Cl)=C(Cl)Cl)cc2)c1C(F)(F)F` was run?
A: The IC50 was 1 µM.

Q: What does the source list for `CCN(CC)c1ccc(CNc2ccc(Cl)cc2)cc1`?
A: EC50 (MDA-MB-468): 2.5 µM; EC50 (MCF7): 0.77 µM; EC50 (HCC1937): 0.44 µM; EC50 (HCC38 [6]): 1.2 µM; EC50 (MDA-MB-453): 2.51 µM

Q: How did the IC50 (MDA-MB-231 [7]) turn out when `O=C1OC(=O)C2C3CCC(O3)C12` (configuration not stated) was run?
A: Its IC50 is 21.8 µg/mL (≈ 130 µM).

Q: What about the IC50 (MDA-MB-436) of the same compound?
A: The IC50 was 17.7 µg/mL (≈ 105 µM).

Q: What about the IC50 (BT-549 [8]) of the same compound?
A: The IC50 was 12.8 µg/mL (≈ 76.3 µM).

Q: What does the source list for `Cc1ccsc1C(=O)Nc1cc(CN2CCN(C(=O)CO)CC2)ccc1/C=C/c1n[nH]c2ccccc12` [KW-2450]?
A: IC50 (Aurora kinase A): 0.215 µM; IC50 (Aurora kinase B [9]): 0.478 µM; IC50 (Aurora kinase B [10]): 0.272 µM; IC50 (Aurora kinase B [11]): 0.066 µM; IC50 [12]: < 0.002 µM; IC50 [13]: < 0.002 µM

Q: Which IC50 (MDA-MB-231 [4]) does the source give for `Cc1nc(Nc2ncc(C(=O)Nc3cc(NC(=O)c4cccc(C(F)(F)F)c4)ccc3C)s2)cc(N2CCN(CCO)CC2)n1` here?
A: Its IC50 is 0.0061 µM.

Q: And the IC50 (HCC1937)?
A: The IC50 was 0.12 µM.

Q: What about the IC50 (SUM149PT) of the same compound?
A: The IC50 was 0.23 µM.

Q: And the IC50 (Hs-578T [14])?
A: The IC50 was 0.0091 µM.

Q: What does the source list for `Nc1ccccc1NC(=O)c1ccc(CNC(=O)OCc2cccnc2)cc1` [ENTINOSTAT]?
A: IC50 (Hs-578T [15]): 1 µM; IC50 (MDA-MB-231 [16]): 1 µM

Q: How did the IC50 (MDA-MB-231 [17]) turn out when `Cc1sc2c(c1C)C(c1ccc(Cl)cc1)=N[C@@H](CC(=O)NCCCCCCCCCCNC(=O)C[C@@H]1N=C(c3ccc(Cl)cc3)c3c(sc(C)c3C)-n3c(C)nnc31)c1nnc(C)n1-2` was run?
A: Its IC50 is 0.0103 µM.

Q: And the IC50 (Hs-578T [18])?
A: Its IC50 is 0.0041 µM.

Q: What about the IC50 (BT-549 [19]) of the same compound?
A: The IC50 was 0.0068 µM.

Q: And the IC50 (HCC1806 [20])?
A: The IC50 was 0.019 µM.

Q: And the IC50 (HCC38 [21])?
A: The IC50 was 0.015 µM.

Q: Which IC50 (BT-20) does the source give for `CN(c1ccccc1CNc1nc(Nc2ccc3c(c2)CC(=O)N3)ncc1C(F)(F)F)S(C)(=O)=O` here?
A: The IC50 was 6.2 µM.

Q: For `Fc1ccc(-c2ccc(Nc3nc(Cl)nc(Cl)n3)cc2)cc1`, which IC50 (Thioredoxin) is on record?
A: Its IC50 is 10 µM.
